A short description of the series: gradient 5% acetonitrile 3 min, to 50% in 2 min, to 85% in 15 min, held 3 min, 100 µL/min. The settings on record: column: Zorbax Extend-C18 2.1 x 50 mm; eluents: water / acetonitrile, 0.1% formic acid. The procedure, abridged: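 Retention times come from adduct peaks that were picked computationally and then checked by hand. The standards, pure and pooled in mixtures of ~100 molecules, were run on a Zorbax Extend-C18 column (2.1 × 50 mm, 1.8 μm) at 100 μL/min with water and acetonitrile, each with 0.1% formic acid. Detection was by quadrupole time-of-flight mass spectrometry in positive and negative ionization mode, with a dead volume of 40 μL and a dwell volume of 900 μL.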
For the molecule `CC(=O)N1CCc2sc(C(=O)N3CCN(c4ccc(Cl)cc4)CC3)cc2C1`, the RP-LC retention time came out at 837 s.

As to `CCC(C)c1c(N)n(S(=O)(=O)c2ccc(C)cc2)oc1=O` (centres undefined), the RP-LC retention time turned out to be 932 s.

In turn, `COCCN1CCn2cc(S(=O)(=O)Nc3ccc(C#N)cc3)cc2C1=O` displayed an RP-LC retention time of 671 s.

In turn, `CCN(CC)S(=O)(=O)c1ccc2c(c1)ncn2CCC(=O)N1CCN(c2ccccn2)CC1` registered an RP-LC retention time of 602 s.

For the molecule `Cc1nc(C(=O)N2CCN(Cc3ccc(C)c(C)c3)CC2)c(C)o1`, the RP-LC retention time was found to be 619 s.

The molecule `COc1ccc(C2CC(=O)N(c3cc(C)cc(C)c3)C(=O)C2)cc1OC` showed an RP-LC retention time of 891 s.

With `O=C(Nc1ccc(C2(C(=O)NCC3CCCO3)CC2)cc1)c1ccc(Br)cc1` (centres undefined), the RP-LC retention time amounted to 828 s.

Consider `CCCn1c(=O)sc2cc(S(=O)(=O)N3CCC(C(=O)N4CCCCC4)CC3)ccc21`, for which the RP-LC retention time was determined as 876 s.

Turning to `Cc1ccccc1Nc1nc(N)nc(CN2CCN(c3ccccn3)CC2)n1`, the RP-LC retention time stood at 568 s.

Molecule `O=C(c1ccc(F)cc1)N1CCC(CCNS(=O)(=O)c2ccc(F)cc2F)CC1` came in with an RP-LC retention time of 809 s.

Molecule `N#Cc1cccc(NC(=O)Cn2cccc(-c3nc(-c4ccc(Br)cc4)no3)c2=O)c1` yielded an RP-LC retention time of 958 s.

The molecule `COc1ccc(NC(=O)N2CC(c3nc(C(C)C)nn3C)C2)c(OC)c1` showed an RP-LC retention time of 667 s.

As for `Cn1nc(CO)c2c1CCN(C(=O)c1ccc3[nH]ccc3c1)C2`, the RP-LC retention time is 591 s.

With `O=C(c1cc(S(=O)(=O)N2CCCC(C(=O)N3CCCCCC3)C2)c[nH]1)N1CCCCCC1` (centres undefined), the RP-LC retention time turned out to be 824 s.

Molecule `CCOC(=O)c1nc(N2CCN(Cc3ccccc3)CC2)c2ccccc2n1` yielded an RP-LC retention time of 623 s.

For `Cc1ccc(NC(=O)N2CCc3nc(-c4ccc(Cl)cc4)ncc3C2)cc1C`, the RP-LC retention time was determined as 1160 s.

In turn, `COCCN1C(=O)c2ccccc2C(C(=O)NCC2COc3ccccc3O2)C1c1ccc(F)cc1` (centres undefined) displayed an RP-LC retention time of 954 s.

`Cc1ccccc1CC(=O)NCc1ccc2c(c1)ncn2C(C)C` came in with an RP-LC retention time of 618 s.

Molecule `CCn1c(=O)c(C)nc2cc(-c3noc(-c4ccc(Br)cc4)n3)ccc21` gave an RP-LC retention time of 1270 s.

`CC1=NS(=O)(=O)N(C)C=C1C(=O)OCc1nc(-c2ccccc2F)no1` came in with an RP-LC retention time of 895 s.

As to `O=C(c1ccoc1)N1CCC(c2noc(-c3ccncc3)n2)C1` (centres undefined), the RP-LC retention time turned out to be 665 s.

Turning to `CCc1ccccc1S(=O)(=O)N1CCC(N(C(=O)COC)C2CCOCC2)CC1`, the RP-LC retention time was 823 s.

As for `CN(CC1CCOCC1)C(=O)Nc1ccccc1Cl`, the RP-LC retention time was 763 s.

Turning to `O=C(Nc1ccccc1Cl)c1cn(CC2CCCO2)cc2c(=O)n(-c3ccccc3)nc1-2` (centres undefined), the RP-LC retention time worked out at 1050 s.

With `CCCNc1cc(N2CCC(CCC(=O)NCc3ccc(F)cc3)CC2)ncn1`, the RP-LC retention time amounted to 686 s.

`CSc1ccc(Cl)c(C(=O)Nc2cccn3c(C4CCC4)nnc23)c1` displayed an RP-LC retention time of 911 s.

The molecule `COc1ccccc1CCNC(=O)C1CN(C(=O)c2ccc(F)c(F)c2)C1` returned an RP-LC retention time of 731 s.

`COc1cccc(-n2c(=O)c3sccc3n(Cc3nc(-c4ccc(C(C)(C)C)cc4)no3)c2=O)c1` gave an RP-LC retention time of 1220 s.

With `Cc1ccc(Nc2c(-c3ccccc3O)nc3ccc(Br)cn23)cc1`, the RP-LC retention time is 1070 s.

The molecule `CCc1c(C2CCN(C(=O)c3ccnn3CC)CC2)noc1N` displayed an RP-LC retention time of 652 s.

Molecule `CCNC(=O)Nc1ccc(OCC(=O)NC(C)c2cccc(OC)c2)nc1` (centres undefined) gave an RP-LC retention time of 686 s.

Molecule `COc1ccc(OC)c(CCNc2nc(-c3ccc(OC)c(OC)c3)no2)c1` had an RP-LC retention time of 918 s.

For `Cc1c(Cc2ccc3c(c2)OCO3)sc(NC(=O)c2ccc([N+](=O)[O-])s2)c1C#N`, the RP-LC retention time came out at 1070 s.

As to `CCc1nc(-c2ccc3c(c2)CCN3C(=O)Cc2ccc(NC(C)=O)cc2)no1`, the RP-LC retention time stood at 796 s.

Turning to `Cc1ccnc(N2CCC(C(=O)NCCCN3CCCC(C)C3)CC2)n1` (centres undefined), the RP-LC retention time came to 568 s.

`Cc1ccc(C(=O)NC2CCN(c3cc(-c4ccccc4)[nH]n3)C2)s1` (centres undefined) yielded an RP-LC retention time of 708 s.

As to `COc1cc(C2=NN(C(C)=O)C(c3cccnc3)O2)cc(OC)c1OC(C)=O` (centres undefined), the RP-LC retention time was determined as 728 s.

As for `CC(C)CCNc1ccc2nncn2n1`, the RP-LC retention time is 786 s.

In turn, `O=C(CC(F)(F)F)N1CCCC(CCc2nnc(-c3cnccn3)o2)C1` (centres undefined) registered an RP-LC retention time of 717 s.

`COc1cc(-c2nc3ncccn3c2NC2CCC(C)CC2)ccc1OC(C)C` (centres undefined) returned an RP-LC retention time of 868 s.

As for `Cc1ccccc1CNC(=O)Cn1cnc2onc(C)c2c1=O`, the RP-LC retention time came to 738 s.

Turning to `CCOc1ccc(CN2C(=O)C3(CCOCC3)CC2c2nnnn2C(C)(C)C)cc1OC` (centres undefined), the RP-LC retention time is 754 s.

`COc1cccc(-c2nnc(NC(=O)C3CCCCC3)o2)c1` displayed an RP-LC retention time of 753 s.

`CCC(=O)N1CCCN(C2=NS(=O)(=O)C(c3ccc(CC)cc3)=C2C)CC1` returned an RP-LC retention time of 796 s.

In the case of `CC(C)c1ccc(NC(=O)Cc2csc3nc(-c4ccccc4)cn23)cc1`, the RP-LC retention time is 970 s.

`Cc1ccc(C2NC(=O)N(CC(=O)Nc3cc(F)cc(F)c3)C3=C2C(=O)OC3)cc1` (centres undefined): the RP-LC retention time came out at 844 s.

In turn, `CCOc1ccc(-c2nc(C3CC(=O)N(c4ccc(OC)c(OC)c4)C3)no2)cc1` (centres undefined) displayed an RP-LC retention time of 912 s.

For the molecule `Cc1nc2cccnc2n1CCN1CCN(C(=O)Nc2ccc(Br)cc2)CC1`, the RP-LC retention time was determined as 619 s.

Consider `O=C(c1ccc(F)cc1F)N1CCc2nc(-c3ccc(Cl)cc3)ncc2C1`, for which the RP-LC retention time stood at 1060 s.

As to `Cc1cc(N(C)C)nc(N2CCN(C(=O)c3ccc(-c4ccccc4)cc3)CC2)n1`, the RP-LC retention time is 758 s.

As to `COc1cccc(-c2noc(C3CCCN3C(=O)Nc3ccc(OC)c(OC)c3)n2)c1` (centres undefined), the RP-LC retention time was 855 s.

In turn, `O=C(Nc1ccc(N2CCN(c3ccccc3)C2=O)nc1)c1cccs1` returned an RP-LC retention time of 836 s.

On to `COc1ccc(OCC(O)CN2CCN(c3ccc(Cl)cc3)CC2)cc1` (centres undefined), for which the RP-LC retention time worked out at 795 s.

Regarding `CC(C)NC(=O)c1ccc2c(c1)ncn2CCNC(=O)Nc1ccc(Br)cc1F`, the RP-LC retention time stood at 651 s.

Molecule `Cc1ccc(NC(=O)C2CCN(C(=O)C3Sc4ccccc4NC3=O)CC2)cc1F` (centres undefined) yielded an RP-LC retention time of 804 s.

`Cc1c(Cl)cccc1NC(=O)N1CCN(C2=CC3=NCC(C)N3C=N2)CC1` (centres undefined) had an RP-LC retention time of 632 s.

`Cc1ccc(-c2nnc(-c3nn(C)c4c3CN(S(=O)(=O)c3ccccc3F)CC4)o2)cc1`: the RP-LC retention time was 970 s.

`Cc1cccc(NC(=O)N(C)CCc2noc(COc3ccccc3)n2)c1C` returned an RP-LC retention time of 913 s.

`COc1ccc(C(=O)CSc2nnc(-c3cc(C)oc3C)o2)cc1OC`: the RP-LC retention time was 911 s.

`Cc1cccc(NC(=O)CN2CCc3[nH]c4c(C)c(C)ccc4c(=O)c3C2)c1` came in with an RP-LC retention time of 626 s.

In turn, `COc1ccc(-c2csc(NC(=O)NC3CCCC3)n2)cc1` gave an RP-LC retention time of 861 s.

Turning to `Cc1ccc2[nH]cc(CCNC(=O)COc3ccccc3)c2c1`, the RP-LC retention time was determined as 904 s.

The molecule `CN1C(=O)c2cccn2CC1C(=O)NCc1nc2ccccc2n1C` (centres undefined) displayed an RP-LC retention time of 566 s.

The molecule `Cc1ccc2c(c1)NN=C(C(=O)N1CCOCC1)S2(=O)=O` came in with an RP-LC retention time of 639 s.

`O=C(NC1CCCC1)C1CCCN(S(=O)(=O)c2cc(-c3noc(C4CCCC4)n3)cs2)C1` (centres undefined): the RP-LC retention time was 1120 s.

As for `COc1cc(=O)n(-c2ccccc2C)nc1C(=O)Nc1nc2ccc(C)cc2s1`, the RP-LC retention time turned out to be 861 s.

For `COc1ccc(C(=O)N2CCC(C(=O)NCCc3csc(-c4cccs4)n3)CC2)cc1OC`, the RP-LC retention time stood at 725 s.

Molecule `O=C(Cn1c2ccccc2c2ncn(Cc3nc(C4CC4)no3)c(=O)c21)NC1CCCC1` registered an RP-LC retention time of 819 s.

For `Cc1ccccc1Cn1c(CN2CCC(C(=O)NCc3cccs3)CC2)cc2ccccc21`, the RP-LC retention time is 790 s.

`CN(C)C(CNS(=O)(=O)c1cc(Cl)ccc1Cl)c1cccs1` (centres undefined): the RP-LC retention time was 591 s.

`CS(=O)(=O)N1CCC(C(=O)NCc2cccc(Oc3ccc(F)cc3)c2)CC1` yielded an RP-LC retention time of 767 s.

Molecule `Cc1ccc(CSc2nccc3c2ccn3CC(=O)N2CCN(c3ccccn3)CC2)cc1` yielded an RP-LC retention time of 604 s.

For `Cc1cccc(N2CCN([C@H]3CS(=O)(=O)C[C@@H]3S(=O)(=O)c3ccccc3)CC2)c1`, the RP-LC retention time turned out to be 876 s.

In turn, `Cn1cc2c3c(cccc31)CN(C(=O)c1cc(F)cc(F)c1)CC2` returned an RP-LC retention time of 955 s.

As for `Cc1nc(C)c(-c2nnc(NC(=O)c3ccc(F)cc3F)o2)s1`, the RP-LC retention time turned out to be 663 s.

As for `CCc1csc(-c2ccc(N3CCN(C(=O)C4COc5ccccc5O4)CC3)nc2)n1` (centres undefined), the RP-LC retention time worked out at 1030 s.

In turn, `O=c1cc(-c2ccc(Cl)cc2)[nH]c2ccccc12` yielded an RP-LC retention time of 869 s.

In turn, `Cc1nc(-c2ccccc2)cc2nn(CC(=O)N(C)c3ccccc3)c(=O)n12` displayed an RP-LC retention time of 917 s.

In turn, `COC(=O)[C@H]1[C@H]2C[C@H]3c4[nH]c5cc(OC)ccc5c4CCN3C[C@H]2C[C@@H](OC(=O)c2cc(OC)c(OC)c(OC)c2)[C@@H]1OC` registered an RP-LC retention time of 913 s.

The values are drawn from the METLIN SMRT retention time set (Domingo-Almenara et al. 2019).
